Experimental data: patent US20090318424A1, “NOVEL COMPOUNDS” (priority 2006, published 2009)

Row | SMILES | melting point
1 | CNC(=O)c1ccc(C)c(-c2nc(NCCCNC(C)C)nc3c2CNC(=O)N3c2c(F)cccc2F)c1 [Example 168, 3-[8-(2,6-difluorophenyl)-2-({3-[(1-methylethyl)amino]propyl}amino)-7-oxo-5,6,7,8-tetrahydropyrimido[4,5-d]pyrimidin-4-yl]-N,4-dimethylbenzamide] | 153 to 157 °C (dec.)
2 | Cc1ccc(NC(=O)c2ccsc2)cc1-c1nc(N(C)C)nc2c1CNC(=O)N2c1c(F)cccc1F [Example 12, N-{3-[8-(2,6-difluorophenyl)-2-(dimethylamino)-7-oxo-5,6,7,8-tetrahydropyrimido[4,5-d]pyrimidin-4-yl]-4-methylphenyl}-3-thiophenecarboxamide] | 214 to 215 °C
3 | Cc1ccc(C(=O)N(C)C)cc1-c1nc(NCCNC(C)C)nc2c1CNC(=O)N2c1c(F)cccc1F [Example 153, 3-[8-(2,6-difluorophenyl)-2-({2-[(1-methylethyl)amino]ethyl}amino)-7-oxo-5,6,7,8-tetrahydropyrimido[4,5-d]pyrimidin-4-yl]-N,N,4-trimethylbenzamide] | 130 to 133 °C
4 | Cc1ccc(C(=O)NCc2ccccc2)cc1-c1nc(N2CCC(N(C)C(=O)OC(C)(C)C)CC2)nc2c1CNC(=O)N2c1c(F)cccc1F [Example 147, 1,1-dimethylethyl {-[8-(2,6-difluorophenyl)-4-(2-methyl-5-{[(phenylmethyl)amino]carbonyl}phenyl)-7-oxo-5,6,7,8-tetrahydropyrimido[4,5-d]pyrimidin-2-yl]-4-piperidinyl}methylcarbamate] | 146 to 150 °C (dec.)
5 | CCOc1nc(-c2cc(NC(=O)c3ccc(C)c(F)c3)ccc2C)c2c(n1)N(c1c(F)cccc1F)C(=O)NC2 [Example 25, N-{3-[8-(2,6-difluorophenyl)-2-(ethyloxy)-7-oxo-5,6,7,8-tetrahydropyrimido[4,5-d]pyrimidin-4-yl]-4-methylphenyl}-3-fluoro-4-methylbenzamide] | 257.3 to 262.5 °C
6 | Cc1ccc(C(=O)N(C)C)cc1-c1nc(N2CCN(C)CC2)nc2c1CNC(=O)N2c1c(F)cccc1F [149(c), 3-[8-(2,6-difluorophenyl)-2-(4-methyl-1-piperazinyl)-7-oxo-5,6,7,8-tetrahydropyrimido[4,5-d]pyrimidin-4-yl]-N,N,4-trimethylbenzamide] | 159 to 162 °C

The next lines start with the values.

Row | melting point | SMILES
7 | 160 to 165 °C (dec.) | Cc1ccc(C(=O)NCc2ccccc2)cc1-c1nc(NC2CC(C)(C)NC(C)(C)C2)nc2c1CNC(=O)N2c1c(F)cccc1F [Example 16, 3-{8-(2,6-Difluorophenyl)-7-oxo-2-[(2,2,6,6-tetramethyl-4-piperidinyl)amino]-5,6,7,8-tetrahydropyrimido[4,5-d]pyrimidin-4-yl}-4-methyl-N-(phenylmethyl)benzamide]
8 | 210 to 266 °C (dec.) | Cc1ccc(C(=O)NCc2ccccc2)cc1-c1nc(N2CCC(N)CC2)nc2c1CNC(=O)N2c1c(F)cccc1F [15(c), 3-[2-(4-Amino-1-piperidinyl)-8-(2,6-difluorophenyl)-7-oxo-5,6,7,8-tetrahydropyrimido[4,5-d]pyrimidin-4-yl]-4-methyl-N-(phenylmethyl)benzamide]
9 | 152 to 154 °C (dec.) | Cc1ccc(C(=O)NCc2ccccc2)cc1-c1nc(NC2CCN(C)CC2)nc2c1CNC(=O)N2c1c(F)cccc1F [Example 22, 3-{8-(2,6-Difluorophenyl)-2-[(1-methyl-4-piperidinyl)amino]-7-oxo-5,6,7,8-tetrahydropyrimido[4,5-d]pyrimidin-4-yl}-4-methyl-N-(phenylmethyl)benzamide]
10 | 157 to 161 °C | CNCCNc1nc(-c2cc(C(=O)NCc3ccccc3)ccc2C)c2c(n1)N(c1c(F)cccc1F)C(=O)NC2 [19(b), 3-(8-(2,6-Difluorophenyl)-2-{[2-(methylamino)ethyl]amino}-7-oxo-5,6,7,8-tetrahydropyrimido[4,5-d]pyrimidin-4-yl)-4-methyl-N-(phenylmethyl)benzamide]
